From patent US7351728B2, “Oxazolyl-aryloxyacetic acid derivatives and their use as PPAR agonists” (Eli Lilly and Company, priority 2003, dated 2008) come the findings set out here.

SMILES strings stand for the structures.

What is called melting point is the temperature of the solid-liquid transition.

Data set [1] concerns huPPARα. As to the kind of experiment: Cotransfection assay in CV-1 cells, luciferase reporter (GAL4 chimeric system). It counts as cell-based, human. The settings on record: cotransfection efficacy relative to PPARα agonist reference molecule. Here is the method:
(§1) DNA-dependent binding (ABCD binding) was carried out using SPA technology with PPAR receptors. Tritium-labeled PPARα and PPARγ agonists were used as radioligands for generating displacement curves and IC50 values with compounds of the invention. Cotransfection assays were carried out in CV-1 cells. The reporter plasmid contained an acylCoA oxidase (AOX) PPRE and TK promoter upstream of the luciferase reporter cDNA. Appropriate PPARs and RXRα were constitutively expressed using plasmids containing the CMV promoter. […] In order to eliminate such interference, a GAL4 chimeric system was used in which the DNA binding domain of the transfected PPAR was replaced by that of GAL4, and the GAL4 response element was utilized in place of the AOX PPRE. Cotransfection efficacy was determined relative to PPARα agonist and PPARγ agonist reference molecules. Efficacies were determined by computer fit to a concentration-response curve, or in some cases at a single high concentration of agonist (10 μM). For binding or cotransfection studies with receptors other than PPARs, similar assays were carried out using appropriate ligands, receptors, reporter constructs, etc., for that particular receptor.
(§2) These studies were carried out to evaluate the ability of compounds of the invention to bind to and/or activate various nuclear transcription factors, particularly huPPARα (“hu” indicates “human”) and huPPARγ. These studies provide in vitro data concerning efficacy and selectivity of compounds of the invention. Furthermore, binding and cotransfection data for compounds of the invention were compared with corresponding data for marketed compounds that act on either huPPARα or huPPARγ.
(§3) Binding and cotransfection data for representative compounds of the invention are compared with corresponding data for reference compounds in Table II.
On the technique in general: Reporter assays use an easily measured gene product as a stand-in for the process of interest.

Data set [2] deals with T1, huPPARγ (Homo sapiens, UniProt P37231).
T1 sequence (P37231 1-505): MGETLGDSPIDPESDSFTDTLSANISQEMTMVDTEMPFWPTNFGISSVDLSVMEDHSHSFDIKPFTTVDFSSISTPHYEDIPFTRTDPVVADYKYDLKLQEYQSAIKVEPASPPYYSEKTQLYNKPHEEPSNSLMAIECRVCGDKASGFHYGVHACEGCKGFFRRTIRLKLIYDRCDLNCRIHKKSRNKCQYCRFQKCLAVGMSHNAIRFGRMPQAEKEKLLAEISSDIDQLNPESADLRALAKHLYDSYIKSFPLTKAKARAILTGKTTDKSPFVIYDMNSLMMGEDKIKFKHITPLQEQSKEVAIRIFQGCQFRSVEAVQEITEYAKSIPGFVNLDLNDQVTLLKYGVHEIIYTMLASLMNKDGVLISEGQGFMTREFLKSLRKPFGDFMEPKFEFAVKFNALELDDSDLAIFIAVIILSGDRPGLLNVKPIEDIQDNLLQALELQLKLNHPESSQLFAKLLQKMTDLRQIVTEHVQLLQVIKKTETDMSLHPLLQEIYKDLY
T1 sequence (P19793 1-462 partner): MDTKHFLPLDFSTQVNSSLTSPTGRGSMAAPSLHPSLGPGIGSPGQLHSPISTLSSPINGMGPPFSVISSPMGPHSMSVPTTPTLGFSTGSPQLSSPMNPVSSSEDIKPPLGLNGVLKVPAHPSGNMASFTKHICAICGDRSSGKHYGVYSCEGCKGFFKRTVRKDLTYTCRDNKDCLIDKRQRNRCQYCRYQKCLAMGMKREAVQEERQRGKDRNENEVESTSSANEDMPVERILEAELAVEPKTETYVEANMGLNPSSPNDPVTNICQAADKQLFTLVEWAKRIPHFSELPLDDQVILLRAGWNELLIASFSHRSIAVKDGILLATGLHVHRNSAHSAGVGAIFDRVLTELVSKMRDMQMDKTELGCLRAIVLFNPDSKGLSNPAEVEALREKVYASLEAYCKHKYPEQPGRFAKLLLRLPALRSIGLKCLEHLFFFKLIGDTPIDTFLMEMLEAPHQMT
The data set is described as follows: Cotransfection assay in CV-1 cells, AOX PPRE luciferase reporter. It counts as cell-based. More on the design: expressed in transfected cells; host or cells: CV-1 cells. The conditions noted are these: cotransfection efficacy relative to PPARγ agonist reference molecule, read-out: huPPARγ CTF Eff. (%). Here is the method:
as §1, §2, §3

Take `Cc1oc(-c2cccc(Br)c2)nc1CCOc1ccc(OC(C)(C)C(=O)O)cc1` [Example 9A, 2-(4-{2-[2-(3-Bromophenyl)-5-methyloxazol-4-yl]ethoxy}phenoxy)-2-methylpropionic acid]: the melting point was in the range of 158 to 159 °C. Besides, the “huPPARα CTF Eff. (%)” value in data set [1] is 82%. Also, the Emax in data set [2] was 60%.

As to `CCc1ccc(-c2nc(CCOc3ccc(OC(C)(C)C(=O)O)cc3)c(C)o2)cc1` [Example 13, 2-(4-{2-[2-(4-Ethylphenyl)-5-methyloxazol-4-yl]ethoxy}phenoxy)-2-methylpropionic acid], the “huPPARα CTF Eff. (%)” value in data set [1] stood at 73%. Also, the Emax in data set [2] amounted to 109%.

Take `Cc1cc(OCCc2nc(-c3ccccc3)oc2C)ccc1OC(C)(C)C(=O)O` [Example 24, 2-Methyl-2-{2-methyl-4-[2-(5-methyl-2-phenyloxazol-4-yl)ethoxy]phenoxy}propionic acid]: the melting point was found to be 117 °C. Also, the “huPPARα CTF Eff. (%)” value in data set [1] turned out to be 73%. Moreover, in data set [2], the Emax is 94%.

Regarding `Cc1oc(-c2ccccc2)nc1CCOc1ccc(OC(C)(C)C(=O)O)cc1` [Example 1, 2-Methyl-2-{4-[2-(5-methyl-2-phenyloxazol-4-yl)ethoxy]phenoxy}propionic acid], in data set [1], the “huPPARα CTF Eff. (%)” value was found to be 72%. In addition, the Emax in data set [2] stood at 69%.

As for `CCc1cccc(-c2nc(CCOc3ccc(OC(C)(C)C(=O)O)cc3)c(C)o2)c1` [Example 12, 2-(4-{2-[2-(3-Ethylphenyl)-5-methyloxazol-4-yl]ethoxy}phenoxy)-2-methylpropionic acid], the melting point fell in the range of 134 to 135 °C. In data set [1], the “huPPARα CTF Eff. (%)” value is listed as 68%. The Emax in data set [2] is 66%.

In the case of `Cc1oc(-c2ccccc2)nc1CCOc1ccc(OC(C)(C)C(=O)O)c(Cc2ccccc2)c1` [Example 32, 2-{2-Benzyl-4-[2-(5-methyl-2-phenyloxazol-4-yl)ethoxy]phenoxy}-2-methylpropionic acid], in data set [1], the “huPPARα CTF Eff. (%)” value amounted to 82%. Moreover, the Emax in data set [2] is 80%.

Take `Cc1oc(-c2ccccc2)nc1CCOc1ccc(OC(C)(C)C(=O)O)c2c1CCCC2` [Example 38, 2-Methyl-2-{4-[2-(5-methyl-2-phenyl-oxazol-4-yl)-ethoxy]-5,6,7,8-tetrahydro-naphthalen-1-yloxy}-propionic acid]: the “huPPARα CTF Eff. (%)” value in data set [1] is given as 80%. Besides, the Emax in data set [2] turned out to be 65%.

Regarding `CCCc1cc(OCCc2nc(-c3ccccc3)oc2C)ccc1OCC(=O)O` [Example 26, {4-[2-(5-methyl-2-phenyl-oxazol-4-yl)ethoxy]-2-propylphenoxy}acetic acid], the “huPPARα CTF Eff. (%)” value in data set [1] worked out at 35%. Also, in data set [2], the Emax is 52%.

`Cc1oc(-c2ccccc2)nc1CCOc1ccc(OC(C)(C)C(=O)O)c(CC(C)C)c1` [Example 30C, 2-{2-Isobutyl-4-[2-(5-methyl-2-phenyloxazol-4-yl)ethoxy]phenoxy}-2-methylpropionic acid]: the “huPPARα CTF Eff. (%)” value in data set [1] is 67%. Besides, the Emax in data set [2] is 63%.

In the case of `Cc1oc(-c2ccccc2)nc1CCOc1ccc(OC(C)(C)C(=O)O)c(CCc2ccccc2)c1` [Example 30J, 2-Methyl-2-{4-[2-(5-methyl-2-phenyloxazol-4-yl)ethoxy]-2-phenethylphenoxy}propionic acid], the “huPPARα CTF Eff. (%)” value in data set [1] was 90%. For the same molecule, the Emax in data set [2] is 50%.

In the case of `CCCc1cc(OCCc2nc(-c3ccccc3)oc2C)ccc1OC(C)(C)C(=O)O` [Example 26A, 2-Methyl-2-{4-[2-(5-methyl-2-phenyloxazol-4-yl)ethoxy]-2-propylphenoxy}propionic acid], the “huPPARα CTF Eff. (%)” value in data set [1] was determined as 75%. In data set [2], the Emax is 74%.

Turning to `Cc1oc(-c2ccccc2)nc1CCOc1ccc(OC(C)(C)C(=O)O)c2ccccc12` [Example 37, 2-Methyl-2-{4-[2-(5-methyl-2-phenyl-oxazol-4-yl)-ethoxy]-naphthalen-1-yloxy}-propionic acid], the “huPPARα CTF Eff. (%)” value in data set [1] came out at 91%. Besides, the Emax in data set [2] was 60%.

Consider `Cc1oc(-c2ccc(OC3CCCCC3)cc2)nc1CCOc1ccc(OC(C)(C)C(=O)O)cc1` [Example 21, 2-(4-{2-[2-(4-Cyclohexyloxy-phenyl)-5-methyl-oxazol-4-yl]-ethoxy}-phenoxy)-2-methyl-propionic acid], for which the “huPPARα CTF Eff. (%)” value in data set [1] stood at 78%. In addition, the Emax in data set [2] worked out at 85%.

Consider `CCCCc1cc(OC(C)(C)C(=O)O)ccc1OCCc1nc(-c2ccccc2)oc1C` [Example 31F, 2-{3-Butyl-4-[2-(5-methyl-2-phenyloxazol-4-yl)ethoxy]phenoxy}-2-methylpropionic acid], for which the “huPPARα CTF Eff. (%)” value in data set [1] turned out to be 70%. Also, the Emax in data set [2] is 51%.

Consider `Cc1oc(-c2cccc(CCc3ccccc3)c2)nc1CCOc1ccc(OC(C)(C)C(=O)O)cc1` [Example 12A, 2-Methyl-2-(4-{2-[5-methyl-2-(3-phenethylphenyl)oxazol-4-yl]ethoxy}phenoxy)-propionic acid], for which the melting point lay within 124 to 125 °C. In addition, the “huPPARα CTF Eff. (%)” value in data set [1] was determined as 74%. Moreover, in data set [2], the Emax was determined as 170%.

In the case of `CCCc1cc(OC(C)(C)C(=O)O)ccc1OCCc1nc(-c2ccccc2)oc1C` [Example 27A, 2-Methyl-2-{4-[2-(5-methyl-2-phenyloxazol-4-yl)ethoxy]-3-propylphenoxy}propionic acid], the “huPPARα CTF Eff. (%)” value in data set [1] was determined as 95%. The Emax in data set [2] stood at 63%.

As to `CCc1cc(OCCc2nc(-c3ccccc3)oc2C)ccc1OC(C)(C)C(=O)O` [Example 30A, 2-{2-Ethyl-4-[2-(5-methyl-2-phenyloxazol-4-yl)ethoxy]phenoxy}2-methylpropionic acid], the “huPPARα CTF Eff. (%)” value in data set [1] is recorded as 80%. Besides, the Emax in data set [2] turned out to be 92%.
